According to publication PMC8472513, “(−)-6-epi-Artemisinin, a Natural Stereoisomer of (+)-Artemisinin in the Opposite Enantiomeric Series, from the Endemic Madagascar Plant Saldinia proboscidea, an Atypical Source” (Molecules, 2021):
Read-outs that look alike come from different tables or passages of the source.

Legend:
[1] = system: haem polymerization; experiment: haem polymerization inhibitory activity (HPIA) assay; type: biochemical; conditions: haematin, pH 2.6, 37 °C, 24 h; read-out: IC50, inhibition of haem polymerization formation
Method: Antimalarial activity was tested to (−)-6-epi-artemisinin (2) based on inhibition of haem polymerization. Haem is a by-product of haemoglobin digestion […]. It is potentially toxic to biological membranes and parasite enzymes, and it is thus sequestered in the form of an insoluble crystalline polymer, haemozoin or malaria pigment. Identifying molecules that interfere with haem polymerization is the basic principle of the assay. Haem can be polymerized in vitro, in the absence of proteins, from a solution of haematin at 70 °C or 37 °C at acidic pH. In vitro quantification of haem polymerization allows the identification of molecules with haem polymerization inhibitory activity (HPIA) and the assessment of their HPIA, relative to that of standard antimalarials like chloroquine.
100 microliters of a 0.5 mM solution of haematin, previously dissolved in 0.1 M NaOH, was distributed in 96-well U-bottomed microplates. […] The DMSO-soluble fraction (fraction II) was collected, and the pellet, consisting of a pure precipitate of haematin, was dissolved in 0.1 M NaOH (fraction III) for spectroscopic quantification. […] The amount of haematin was determined by measuring the absorbance at 405 nm using a microtiter plate reader. […]
Statistical analysis. […] Data were analyzed by Excel Microsoft. […]

[2] = system: SARS-CoV-2; experiment: microbe, parasite or virus in culture; type: cell-based; conditions: Vero E6 cells; for EC50: MOI 0.01, 24 h post infection, read-out: EC50, SARS-CoV-2 inhibitory assay
[3] = system: Vero E6 cells; conditions: read-out: CC50, cytotoxicity against Vero E6 cells; CCK8
[4] = system: W2 apoptotic competent and D3 apoptotic deficient mouse epithelial cell lines; experiment: apoptosis induction assay (MTT, W2 vs D3 cells); type: cell-based; conditions: 48 h
Excerpt: However, the antiproliferative activity of different artemisinin isomers has never been studied in the past. […] To address this subject, we performed an apoptosis induction assay with compound 2 in order to evaluate the effect of the change in configurations on this activity. To develop a cell-based assay specific for the identification of apoptosis-inducing compounds that are potential antiproliferative agents, we used two genetically engineered mouse epithitial cell lines: W2 apoptotic competent and D3 apoptotic deficient. Compounds that have the capacity to kill W2 and not D3 cells are consistent with proapoptotic, potentially antiproliferative activity. Compounds that meet these criteria activate apoptosis upstream in a pathway that requires Bax and Bak. […]
Apoptosis induction in the presence of compound 2 was carried out as follows. […] Cell viability was determined using a modification of the MTT assay, where the reduction of yellow tertazolium salt (MTT-3-(4,5-Dimethylthiazol-2-yl)-2,5) to purple formazan indicates mitochondrial activity, and thus cell viability. […] After 30 min incubation at 37 °C with shaking, absorbance was read at 570 nm on a Spectra MAX 250 (Molecular Devices) plate reader. Differential growth from time 0 to 48 h was calculated. […]

[5] = in vitro; conditions: African green monkey, CC50, cytotoxicity against Vero E6 cells, CCK8
[6] = system: MCF breast cancer cells; conditions: read-out: IC50, antiproliferative activity, cited from earlier work
[7] = system: SARS-CoV-2; design: method as in PMID 32786284; conditions: read-out: EC50, inhibitory effect on SARS-CoV-2; cited from earlier work

In the case of CC1CCC2C(C)C(=O)OC3OC4(C)CCC1C32OO4 (single isomer, unassigned; (-)) [compound 2, (−)-6-epi-artemisinin], the IC50 [1] is reported as 0.0035 ± 2e-06 µM, the EC50 ([2]; Severe acute respiratory syndrome coronavirus 2, Vero C1008, 24 h) is reported as 49 ± 0.32 µM and the “inhibition of growth of SARS-CoV-2 (in words)” value (from here on “inhibition”) [2] is reported as “inhibited the growth of SARS-CoV-2”. It also gave a CC50 [3] of over 250 µM, an IC50 ([4]; Mus musculus, Epithelial cell, read-out: IC50, induction of apoptosis, W2/D3 cells, 48 h, MTT) of 10 µM and an IC50 ([4]; read-out: IC50, induction of apoptosis, W2/D3 cells, MTT) of 11 ± 0.71 µM. It also gave a CC50 [5] of over 200 µM.
Work on CCN(CC)CCCC(C)Nc1ccnc2cc(Cl)ccc12 (stereo not drawn) [chloroquine, reference compound] yielded an IC50 [1] of 0.018 ± 1e-06 µM.
In the case of C[C@@H]1CC[C@H]2[C@@H](C)C(=O)O[C@@H]3O[C@@]4(C)CC[C@@H]1[C@]32OO4 [compound 1, (+)-artemisinin], the IC50 ([6]; MCF breast cancer cells) is listed as 9.13 ± 0.07 µM, the EC50 [7] is listed as 64 µM and the “inhibition” value [2] is listed as “inhibited the growth of SARS-CoV-2”.
With CC1CCC2C(C)C(=O)OC3OC4(C)CCC1C32OO4 (stereo not drawn) [compound 3, 9 epimer of 2] the “inhibition” value [2] was “inhibited the growth of SARS-CoV-2”, the EC50 [2] was 54 ± 0.27 µM and the CC50 [3] was over 200 µM.
For C[C@H]1[C@@H](O)O[C@@H]2O[C@@]3(C)CC[C@H]4[C@H](C)CC[C@@H]1[C@@]24OO3 [dihydroartemisinin], the IC50 ([6]; these same cells (MCF)) is given as 5.27 ± 0.01 µM.
